In the test the test system is ob/ob mice. As to the kind of experiment: Effect of pharmacologic PDE9 inhibition on body weight, food intake and plasma metabolites in ob/ob mice. It is filed as in vivo, mouse. To be noted: female ob/ob mice. As to the method:
On Day 1, plasma glucose was determined via retro-orbital blood samples. 25 μL of blood was added to 100 μL of 0.025 percent heparinized-saline in microtubes (Denville Scientific, Inc., Metuchen, N.J.). The tubes were spun at the highest setting in a Beckman Microfuge 12 for 2 minutes. Plasma was collected for plasma glucose and triglyceride determination, as further described below. During the course of the study, body weight and food consumption were assessed, and blood samples were taken at approximately 8 am for plasma glucose and triglyceride measures, as further described below.
Plasma glucose, triglycerides, and fructosamine were measured using the Roche/Hitachi 912 Clinical Chemistry Analyzer (Roche Diagnostics Corp., Indianapolis, Ind.). Plasma cGMP was measured using the BioTrak™ enzyme-immunoassay system (Amersham, Piscataway, N.J.). Plasma insulin was assessed via a similar technique using the Mercodia ELISA Insulin kit supplied by ALPCO (Uppsala, Sweden). All assays were conducted according to each manufacturer's instructions.
Female ob/ob mice obtained from Jackson Laboratories (Bar Harbor, Me.) were used at 6 to 10 weeks of age. Mice were housed five per cage and allowed free access to water and, initially, to D11 mouse chow. Following a one week acclimation period, mice were switched to a powdered diet (Mouse Breeder/Auto-JL K20 mouse chow, PMI Feeds, Inc., St. Louis, Mo.) for three days and allowed to adapt to the diet prior to the start of the PDE9 inhibitor dosing period.
The PDE9 inhibitor compound (Compound A) was administered in powdered mouse chow that was custom ground (Research Diets, Inc., New Brunswick, N.J.) as a compound/chow admixture; compounds were mixed with the chow to achieve consumption of the specified doses ranging from 1-200 mg/kg/day. In addition to a compound-free control group, a group consuming darglitazone (1 mg/kg/day) was also included as a positive control.
Mice were randomly assigned to groups of ten with five mice per cage. Body weight was determined on Day 0 and weekly thereafter. On Day 1, retro-orbital blood samples were obtained and plasma glucose was determined as previously described. On the final day of the study, blood samples were taken for glucose, triglyceride, insulin, and cGMP measurements, as previously described.

Molecules are shown by their SMILES.

Turning to `CC(C)c1n[nH]c2c(=O)[nH]c(Cc3ccccc3OCCN3CCOCC3)nc12` [Compound A, 3-isopropyl-5-[2-(2-morpholin-4-yl-ethoxy)-benzyl]-1,6-dihydro-pyrazolo[4,3-d]pyrimidin-7-one], the plasma glucose entry (100 mg/kg/day (FIG. 10)) was “decreased”. Besides, under “100 mg/kg/day (FIG. 11)”, the plasma triglycerides entry is reported as “decreased”. Also, the body weight gain result (100 mg/kg/day in chow, compared to compound-free control diet or darglitazone-treated diet (FIG. 7)) is listed as “reduced body weight gain”. In addition, under “100 mg/kg/day, Day 16 (FIG. 12)”, the plasma fructosamine result is given as “decreased”. Under “100 mg/kg/day, later stages of the study (FIG. 9)”, the food intake entry is given as “no effect on food intake”. The “reducing the normal body weight gain (dose effect)” value (following 2 and 4 days of treatment (FIG. 8A)) was “dose-dependent effect”. In addition, the “reducing food intake (dose effect)” value (following 2 and 4 days of treatment (FIG. 8B)) was “dose-dependent effect”.

Values taken from patent publication US20080282364A1, “Phosphodiesterase 9 Inhibition as Treatment for Obesity-Related Conditions” (priority 2003, published 2008).
